Experiment [1] concerns HeLa cells. In words: Cellular fractionation of [^3H]-triptolide labeled HeLa cells. The format is binding. The text has this:
To address first the nature of triptolide binding within the cell, Applicants determined this interaction was reversible as [^3H]-triptolide labeling was out competed by subsequent addition of excess unlabeled triptolide (FIG. 2A). […] Although 25% of the total cellular counts (i.e., representing bound triptolide) were found in the cytosolic fraction, it is uncertain whether this is specific binding or simply that free triptolide had dissociated from its binding protein due to experimental manipulation during fractionation. Since the data thus far had only shown binding within whole cells, Applicants next determined if this triptolide binding protein could be further characterized and/or enriched by its association with chromatographic reagents. HeLa cells were once again labeled with [^3H]-triptolide and total cell lysates were then passed over the anion exchange resin DEAE. […] Importantly, Applicants also observed that [^3H]-triptolide would only bind to intact cells in culture but would not bind to any component of a total cellular lysate as assessed by interaction with the DEAE resin. […]
For cellular fractionation studies, cells were allowed to swell on ice and lysed by passage through a syringe in a hypotonic lysis buffer (10 mM Tris-HCl+complete protease inhibitors). […] Gel slices were measured out in equal increments and the molecular weight range of each was calculated. […]

Experiment [2] deals with HeLa cells. In words: [^3H]-triptolide binding with or without extracellular calcium. The text has this:
To understand further the nature of triptolide's interaction within the cell, Applicants altered cell culture conditions to examine if [^3H]-triptolide binding would be affected. […] Additionally, it has been established that aberrant calcium signaling can result in cell death (Rizzuto, et al., 2003, Oncogene 22, 8619-8627; Orrenius, et al., 2003, Nat Rev Mol Cell Biol 4, 552-565). Due to triptolide's own link with NFκB and NF-AT and its propensity to induce cell death, Applicants examined if triptolide binding could be modulated by free calcium levels. Adherent HeLa cells were cultured in the presence or absence of calcium containing medium for 16 hours before [^3H]-triptolide addition. […] It is also noteworthy that an increase in cell density (not cell number) also increases triptolide binding regardless of calcium levels. Additionally, specific calcium chelation by 10 mM EGTA for one hour in calcium containing medium increased binding by nearly 2 fold.
Labeling studies were performed by the addition of approximately 30 nM [^3H]-triptolide directly into the culture media for one hour at 37° C. […] Total cell lysates were prepared (150 mM NaCl, 50 mM Tris-HCl pH 7.4, 1 mM EDTA, 1% Triton X-100, and Complete protease inhibitors (Roche)) and protein was quantitated before measuring the [^3H]-triptolide binding activity via liquid scintillation.

The subject of experiment [3] is HeLa cells. The experiment can be described thus: [^3H]-triptolide competition binding in HeLa cells. Particulars: for competition for [^3H]-triptolide binding: 1 μM competitor. How it is done: To gain insight into triptolide's mechanism of action Applicants sought to determine its specific binding activity utilizing a system employing [^3H]-triptolide. In addition to competition with 1 μM or 10 μM unlabeled triptolide, Applicants also measured the binding affinities of triptolide analogs (FIG. 1A). These analogs have been previously described and differ structurally from triptolide in the hydrolysis of the 12,13 epoxide (2), and formation of the ketone at the C-14 hydroxyl (3) (FIG. 1A). […] The effective interaction of these analogs with a presumed triptolide binding entity led us to their use in subsequent experiments addressing the mode of triptolide's biological functions.
To address first the nature of triptolide binding within the cell, Applicants determined this interaction was reversible as [^3H]-triptolide labeling was out competed by subsequent addition of excess unlabeled triptolide (FIG. 2A). […] Although 25% of the total cellular counts (i.e., representing bound triptolide) were found in the cytosolic fraction, it is uncertain whether this is specific binding or simply that free triptolide had dissociated from its binding protein due to experimental manipulation during fractionation. Since the data thus far had only shown binding within whole cells, Applicants next determined if this triptolide binding protein could be further characterized and/or enriched by its association with chromatographic reagents. HeLa cells were once again labeled with [^3H]-triptolide and total cell lysates were then passed over the anion exchange resin DEAE. Batch elutions with increasing NaCl concentrations were used to disassociate interactions of variable charge. […] Importantly, Applicants also observed that [^3H]-triptolide would only bind to intact cells in culture but would not bind to any component of a total cellular lysate as assessed by interaction with the DEAE resin. Negative results for a triptolide binding interaction were also observed with DNA-cellulose and the cation exchange resin SPFF (sulphopropyl).
Labeling studies were performed by the addition of approximately 30 nM [^3H]-triptolide directly into the culture media for one hour at 37° C. For cold competition studies, 1 μM triptolide was incubated with the cells for one hour before or after the addition of [^3H]-triptolide. Triptolide analog studies followed a similar protocol where concentrations used for competition were either 1 or 10 μM added before [^3H]-triptolide. Medium was removed and cells were washed 3× in cold PBS. Total cell lysates were prepared (150 mM NaCl, 50 mM Tris-HCl pH 7.4, 1 mM EDTA, 1% Triton X-100, and Complete protease inhibitors (Roche)) and protein was quantitated before measuring the [^3H]-triptolide binding activity via liquid scintillation.

Experiment [4] deals with HeLa cells. The experiment can be described thus: [^3H]-triptolide saturation (specific) binding assay. Particulars: saturation plot. How it is done: Based upon the data above, Applicants next sought to determine if triptolide binding was saturable and if more than one protein (or binding site) was being targeted. Determination of the [^3H]-triptolide binding affinity (KD) and the binding capacity per cell (Bmax) were calculated using a saturation plot. HeLa cells were cultured to 90% confluency and subsequently treated with 0-100 nM of [^3H]-triptolide for one hour. Non-specific binding was defined using 2 μM cold triptolide as competitor. Bmax was calculated to be 99±19 fmol triptolide bound/10^5 cells of triptolide binding sites.
Saturation binding assays were accomplished in HeLa cells adhered on 6-well plates in DMEM+10% FBS. All samples were at least 90% confluent at time of addition of triptolide. Non-specific binding of [^3H]-triptolide was assessed by the pre-incubation of 2 μM (non-labeled) triptolide for one hour. Following cold competition (or DMSO) 5, 10, 20, 50, or 100 nM of [^3H]-triptolide was added into the cultures for an additional one hour, and then cells were lysed and counted for binding activity.

Another experiment relates to NFκB transactivation. The experiment can be described thus: κB-luciferase reporter assay (TNF-α induced). The format is cell-based. Particulars: 5 hours. How it is done: Having established that triptolide induced cell death is dependent upon free calcium concentration, Applicants next determined if this was also a requirement for the inhibition of NFκB transcription. HeLa cells were transiently transfected with the κB-luciferase reporter construct for 8 hours before being washed and then cultured in the presence or absence of calcium containing medium for 16 hours. Triptolide (100 nM) was pre-incubated with cells for 1 hour before addition of 15 ng/ml of TNF-α for 4 hours.
As an additional experiment, transcriptional activity was also assessed by site-directed calcium buffering. HeLa cells were co-transfected with the κB-luciferase plasmid as well as one of the following constructs: GFP empty vector, NES-PV-GFP, or NLS-PV-GFP and proper GFP localization was confirmed. Cells were grown in the presence of calcium for 24 hours before the addition of 100 nM triptolide and 15 ng/ml TNF-α.
NFκB transactivation was examined using the κb-luciferase reporter construct. HeLa cells were transiently transfected and pre-treated with 0-100 nM triptolide for one hour prior to TNF-α addition. Cells were assessed for NFκB driven luciferase expression after an additional five hours of incubation, at which time TNF-α had induced transcriptional activity by approximately 15-fold in control cells. […] The results thus far support a divergence of triptolide-mediated functions: the pathway regulating growth arrest/death is more sensitive to triptolide and calcium than the mechanism leading to transcriptional repression of NFκB.
(§1) Based upon Applicants' studies examining the concentration dependent effect of triptolide on the two measured biological endpoints, cell death and transcriptional repression, Applicants wanted to determine how modulating triptolide's structure may also discriminate between the two pathways. For cell viability assays, HeLa cells were incubated with 0, 0.1, 1, or 10 μM of each analog or triptolide for 24 hours and then counted using trypan blue dye exclusion. […] NFκB transcriptional inhibition was measured using the κB-luciferase assay as previously described following 5 hours of incubation with each analog (0-10 μM) and TNF-α addition.
A triple κB promoter-Luciferase reporter construct was a gift of Sankar Ghosh (Yale University). HeLa cells were plated at a density of 2×10^5 in 12 well plates and transfected with 100 ng of the κB-Luciferase plasmid plus Lipofectamine 2000 (Invitrogen) for 24 hours before the addition of 100 nM triptolide for one hour and 15 ng/ml of recombinant (human) TNF-α (Roche) for an additional five hours. The transfection efficiency of HeLa was determined to be 80-90%, and all samples were normalized to protein concentration. Luciferase assays were performed using the Firefly luciferase kit as per manufacturer's protocol (Promega) and results obtained on the Wallac Victor2 1420 Multilabel Counter (Perkin Elmer).
For orientation: Reporter assays use an easily measured gene product as a stand-in for the process of interest.

The test system of experiment [5] is HeLa cells. In words: HeLa cell viability by trypan blue dye exclusion. The format is cell-based. How it is done:
Since extracellular calcium concentration can influence triptolide binding Applicants sought to determine if the presence of calcium influences the rate of triptolide-mediated apoptosis. To first establish the growth rate of HeLa in media±calcium, cell counts were performed over a 72 hour time course. Although calcium-free media caused cells to detach more easily, the overall growth rates were similar where cell doubling occurred every 24 hours on average (FIG. 3B). For triptolide experiments, cells were initially equilibrated in medium±calcium for 16 hours before the addition of 100 nM triptolide. Cell death was assessed by trypan blue dye exclusion at 24, 48, and 72 hours post drug treatment. In the presence of calcium-containing medium, triptolide induced at least 50% cell death by 24 hours with this trend continuing through later time points (FIG. 3C).
Applicants' results have implicated reversible binding of triptolide to a potential binding protein or complex that can be regulated by calcium. To understand if triptolide function is further separable between cell death and NFκB inhibition, Applicants examined the effect of concentration on these two endpoints. HeLa cells were cultured in the presence of 0, 10, 25, 50, or 100 nM of triptolide and separately assessed for cell death or the ability to suppress NFκB transactivation promoted by TNF-α. Following 24-48 hours of culture, viable cells were recovered and counted. Following 24 hours, triptolide concentrations from 25-100 nM caused greater than 50% of the cells to undergo cell death as assessed by detachment, clumping and the failure to exclude trypan blue dye. […] This is consistent with previous studies showing that low doses of triptolide cause cell cycle arrest rather than apoptosis (Kiviharju, et al., 2002, Clin Cancer Res 8, 2666-2674).
as §1
HeLa cells were incubated in DMEM or SMEM (Gibco) media+10% FBS and maintained at 37° C. in 5% CO2 for all experiments. HeLa cell viability was assessed by trypan blue dye exclusion, as well as by morphological examination (non-viable cells were rounded and detached from culture plate).

The source of these data is US20080188449A1, “Treatment of Conditions Caused By Calcium Abnormalities” (priority 2004, published 2008).

Take `CC(C)[C@]12O[C@H]1[C@@H]1O[C@]13[C@]1(O[C@H]1C[C@H]1C4=C(CC[C@@]13C)C(=O)OC4)[C@@H]2O` [[^3H]-triptolide]: the “total cellular counts found in the cytosolic fraction” value in the experiment with HeLa cells [1] (S-100) came to 25%. Besides, the cellular fraction bound entry in the experiment on HeLa cells [1] (S-100 / P-100 fractionation) is listed as “predominantly to the membrane fraction (P-100)”. The increase of binding in the experiment with HeLa cells [2] (10 mM EGTA for one hour in calcium containing medium) was roughly 2 fold. Also, the “increase of [^3H]-triptolide binding” value with HeLa cells [2] (absence of extracellular calcium for 16 hours) is on record as 2-4 fold. Besides, the “nature of binding interaction” value in the experiment with HeLa cells [3] (excess unlabeled triptolide added after [^3H]-triptolide) was “reversible”. The “binding capacity per cell (Bmax)” value with HeLa cells [4] is 99±19 fmol triptolide bound/10^5 cells.

Turning to `CC(C)C1(O)C(O)C2OC23C2(C)CCC4=C(COC4=O)C2CC2OC23C1O` (stereo not shown) [analog (2), Triol-Triptolide], the “effect on NFκB transcriptional activity” value in the experiment with NFκB transactivation (1 μM) is given as “no effect”. The “competition for [^3H]-triptolide binding” value in the experiment on HeLa cells [3] (HeLa cells) is listed as “efficiently competes”. In addition, in the experiment with HeLa cells [5] (0.1 μM, 24 hours), the cell viability result was “not different from the untreated control”. For the same compound, the cell growth result with HeLa cells [5] (0.1 μM, out to 72 hours) is recorded as “overall growth suppressive effect”. The cell death result in the experiment on HeLa cells [5] (1 μM, 24 hours) is “greater than 50%”.

Regarding `CC(C)[C@]12O[C@H]1[C@@H]1O[C@@]13[C@@]1(C)CCC4=C(COC4=O)[C@@H]1C[C@@H]1O[C@@]13C2=O` [analog (3), Triptonide], the “profile of transcriptional repression” value with NFκB transactivation (0.1-10 μM) is listed as “mimicked triptolide with no significant difference”. The “competition for [^3H]-triptolide binding” value in the experiment with HeLa cells [3] (HeLa cells) is on record as “higher competitive ability than triptolide itself”. The “displacement of [^3H]-triptolide binding” value with HeLa cells [3] (1 or 10 μM competitor one hour before [^3H]-triptolide, HeLa cells) is on record as “near complete”. Besides, the effect on cells entry in the experiment on HeLa cells [5] (25 nM) is on record as “only a growth suppressive effect”. Moreover, the “profile of cell death” value in the experiment with HeLa cells [5] (0.1-10 μM, 24 hours) was “mimicked triptolide with no significant difference”.
